Laboratory results reported in US20040235883A1, “Alkyl-substituted imidazopyridines for the treatment of gastrointestinal disorders” (priority 2001, published 2004).

System: pentagastrin-stimulated acid secretion of the perfused rat stomach
Test: Secretion-inhibiting action on the perfused rat stomach (pentagastrin-stimulated acid secretion, intraduodenal administration in vivo)
Conditions: anesthetized CD rat, female, pentagastrin 1 μg/kg i.v. infusion
Excerpt: Testing of the Secretion-Inhibiting Action on the Perfused Rat Stomach
In Table A which follows, the influence of the compounds according to the invention on the pentagastrin-stimulated acid secretion of the perfused rat stomach after intraduodenal administration in vivo is shown.
The abdomen of anesthetized rats (CD rat, female, 200-250 g; 1.5 g/kg i.m. urethane) was opened after tracheotomy by a median upper abdominal incision and a PVC catheter was fixed transorally in the esophagus and another via the pylorus such that the ends of the tube just projected into the gastric lumen. The catheter leading from the pylorus led outward into the right abdominal wall through a side opening.
After thorough rinsing (about 50-100 ml), warm (37° C.) physiological NaCl solution was continuously passed through the stomach (0.5 ml/min, pH 6.8-6.9; Braun-Unita I). The pH (pH meter 632, glass electrode EA 147; φ=5 mm, Metrohm) and, by titration with a freshly prepared 0.01 N NaOH solution to pH 7 (Dosimat 665 Metrohm), the secreted HCl were determined in the effluent in each case collected at an interval of 15 minutes.
The gastric secretion was stimulated by continuous infusion of […] (=1.65 ml/h) of i.v. pentagastrin (left femoral vein) about 30 min after the end of the operation (i.e. after determination of 2 preliminary fractions). […]

Molecule | Inhibition of acid secretion (%) (dose 1 μmol/kg i.d.) | Inhibition of acid secretion (%) (dose 0.3 μmol/kg i.d.)
Cc1nc2c3c(ccn2c1C)[C@H](C)[C@H](O)CN3 [Example 8, (7S,8S,9R)-8-Hydroxy-2,3,7-trimethyl-7,8,9,10-tetrahydroimidazo[1.2-h][1.7]naphthyridine] | 93 | –
(7S,8S,9R)-7-Cyanomethyl-8-hydroxy-2,3-dimethyl-7,8,9,10-tetrahydroimidazo[1.2h]-[1.7]naphthyridine [Example 9] | – | 52
